From PubChem BioAssay AID1963427 (Molecular Pharmacology Branch, DTP, NCI, 2024)

System: 317291-083-R-J1-PDC complex spheroid growth
Assay: Anticancer human tumor 317291-083-R-J1-PDC patient-derived soft tissue sarcoma cell line growth inhibition [Asc]
Settings: for IC50: curve of first compound; for viability, T/C: stronger effect = lower value
Outline: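 Stromal components (HUVEC and hMSC) are co-assembled with the cancer cells into multicellular spheroids. Drugs are then added singly or paired, at concentrations falling by half-log increments from a clinically achievable maximum, capped at 10 microM without known Cmax.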

[1] = second compound 0.00316 µM, first compound 0.00316 µM
[2] = second compound 0.00316 µM, first compound 0.01 µM
[3] = second compound 0.00316 µM, first compound 0.0316 µM
[4] = second compound 0.00316 µM, first compound 0.1 µM
[5] = second compound 0.01 µM, first compound 0.00316 µM
[6] = second compound 0.01 µM, first compound 0.01 µM
[7] = second compound 0.01 µM, first compound 0.0316 µM
[8] = second compound 0.01 µM, first compound 0.1 µM
[9] = second compound 0.0316 µM, first compound 0.00316 µM
[10] = second compound 0.0316 µM, first compound 0.01 µM
[11] = second compound 0.0316 µM, first compound 0.0316 µM
[12] = second compound 0.0316 µM, first compound 0.1 µM
[13] = second compound 0.1 µM, first compound 0.00316 µM
[14] = second compound 0.1 µM, first compound 0.01 µM
[15] = second compound 0.1 µM, first compound 0.0316 µM
[16] = second compound 0.1 µM, first compound 0.1 µM
[17] = second compound 0.316 µM, first compound 0.00316 µM
[18] = second compound 0.316 µM, first compound 0.01 µM
[19] = second compound 0.316 µM, first compound 0.0316 µM
[20] = second compound 0.316 µM, first compound 0.1 µM
[21] = second compound 1 µM, first compound 0.00316 µM
[22] = second compound 1 µM, first compound 0.01 µM
[23] = second compound 1 µM, first compound 0.0316 µM
[24] = second compound 1 µM, first compound 0.1 µM
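Also: compound exposure lasted seven days after spheroids formed for three days.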
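For viability, T/C in this document: 100% = DMSO vehicle control wells.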

COc1c(OCCCN2CCOCC2)ccc2c3n(c(=NC(=O)c4cnc(N)nc4)nc12)CCN3 + CNC(C)C(=O)NC1CN(S(=O)(=O)c2cccc(S(=O)(=O)N3CCC4CCC(C(=O)NC(c5ccccc5)c5ccccc5)N4C(=O)C(NC(=O)C(C)NC)C3)c2)CCC2CCC(C(=O)NC(c3ccccc3)c3ccccc3)N2C1=O
IC50 (second compound 0.00316 µM): 79.4 nM | IC50 (second compound 0.01 µM): 68.4 nM | IC50 (second compound 0.0316 µM): 68.7 nM | IC50 (second compound 0.1 µM): 5.31 nM | IC50 (second compound 0.316 µM): 43 nM | IC50 (second compound 1 µM): < 3.16 nM | viability, T/C [1]: 80.1% | viability, T/C [2]: 81% | viability, T/C [3]: 68.1% | viability, T/C [4]: 43.5% | viability, T/C (second compound 0.00316 µM, first compound 0.316 µM): 28.3% | viability, T/C (second compound 0.00316 µM, first compound 1 µM): 15.5% | viability, T/C [5]: 72.6% | viability, T/C [6]: 103% | viability, T/C [7]: 61.4% | viability, T/C [8]: 42.6% | viability, T/C (second compound 0.01 µM, first compound 0.316 µM): 22.7% | viability, T/C (second compound 0.01 µM, first compound 1 µM): 13.3% | viability, T/C [9]: 76.5% | viability, T/C [10]: 73.2% | viability, T/C [11]: 77% | viability, T/C [12]: 37.7% | viability, T/C (second compound 0.0316 µM, first compound 0.316 µM): 18.2% | viability, T/C (second compound 0.0316 µM, first compound 1 µM): 11% | viability, T/C [13]: 53.8% | viability, T/C [14]: 44.8% | viability, T/C [15]: 38.9% | viability, T/C [16]: 34.2% | viability, T/C (second compound 0.1 µM, first compound 0.316 µM): 16.9% | viability, T/C (second compound 0.1 µM, first compound 1 µM): 10.7% | viability, T/C [17]: 56% | viability, T/C [18]: 44.4% | viability, T/C [19]: 68.8% | viability, T/C [20]: 32.3% | viability, T/C (second compound 0.316 µM, first compound 0.316 µM): 13.8% | viability, T/C (second compound 0.316 µM, first compound 1 µM): 11% | viability, T/C [21]: 33.2% | viability, T/C [22]: 36% | viability, T/C [23]: 27.2% | viability, T/C [24]: 19.2% | viability, T/C (second compound 1 µM, first compound 0.316 µM): 9.14% | viability, T/C (second compound 1 µM, first compound 1 µM): 5.37%

NC(=O)C(=Cn1cnc(-c2cc(C(F)(F)F)cc(C(F)(F)F)c2)n1)c1cncnc1 + CNC(C)C(=O)NC1CN(S(=O)(=O)c2cccc(S(=O)(=O)N3CCC4CCC(C(=O)NC(c5ccccc5)c5ccccc5)N4C(=O)C(NC(=O)C(C)NC)C3)c2)CCC2CCC(C(=O)NC(c3ccccc3)c3ccccc3)N2C1=O
IC50 (second compound 0.00316 µM): 10.4 nM | IC50 (second compound 0.01 µM): 17.5 nM | IC50 (second compound 0.0316 µM): 20.6 nM | IC50 (second compound 0.1 µM): 8.13 nM | IC50 (second compound 0.316 µM): 12.4 nM | IC50 (second compound 1 µM): 2.22 nM | viability, T/C (second compound 0.00316 µM, first compound 0.000949 µM): 75.5% | viability, T/C (second compound 0.00316 µM, first compound 0.003 µM): 72.6% | viability, T/C (second compound 0.00316 µM, first compound 0.00949 µM): 47.7% | viability, T/C (second compound 0.00316 µM, first compound 0.03 µM): 32.1% | viability, T/C (second compound 0.00316 µM, first compound 0.0949 µM): 5.77% | viability, T/C (second compound 0.00316 µM, first compound 0.3 µM): 2.39% | viability, T/C (second compound 0.01 µM, first compound 0.000949 µM): 105% | viability, T/C (second compound 0.01 µM, first compound 0.003 µM): 96.1% | viability, T/C (second compound 0.01 µM, first compound 0.00949 µM): 74.5% | viability, T/C (second compound 0.01 µM, first compound 0.03 µM): 29.3% | viability, T/C (second compound 0.01 µM, first compound 0.0949 µM): 4.51% | viability, T/C (second compound 0.01 µM, first compound 0.3 µM): 2.62% | viability, T/C (second compound 0.0316 µM, first compound 0.000949 µM): 101% | viability, T/C (second compound 0.0316 µM, first compound 0.003 µM): 92.5% | viability, T/C (second compound 0.0316 µM, first compound 0.00949 µM): 75.6% | viability, T/C (second compound 0.0316 µM, first compound 0.03 µM): 39.5% | viability, T/C (second compound 0.0316 µM, first compound 0.0949 µM): 4.33% | viability, T/C (second compound 0.0316 µM, first compound 0.3 µM): 1.8% | viability, T/C (second compound 0.1 µM, first compound 0.000949 µM): 74.4% | viability, T/C (second compound 0.1 µM, first compound 0.003 µM): 73% | viability, T/C (second compound 0.1 µM, first compound 0.00949 µM): 45.3% | viability, T/C (second compound 0.1 µM, first compound 0.03 µM): 16.6% | viability, T/C (second compound 0.1 µM, first compound 0.0949 µM): 3.12% | viability, T/C (second compound 0.1 µM, first compound 0.3 µM): 1.09% | viability, T/C (second compound 0.316 µM, first compound 0.000949 µM): 63.2% | viability, T/C (second compound 0.316 µM, first compound 0.003 µM): 68.2% | viability, T/C (second compound 0.316 µM, first compound 0.00949 µM): 60.1% | viability, T/C (second compound 0.316 µM, first compound 0.03 µM): 16.1% | viability, T/C (second compound 0.316 µM, first compound 0.0949 µM): 1.31% | viability, T/C (second compound 0.316 µM, first compound 0.3 µM): 2.22% | viability, T/C (second compound 1 µM, first compound 0.000949 µM): 67.3% | viability, T/C (second compound 1 µM, first compound 0.003 µM): 38.9% | viability, T/C (second compound 1 µM, first compound 0.00949 µM): 34.8% | viability, T/C (second compound 1 µM, first compound 0.03 µM): 12.6% | viability, T/C (second compound 1 µM, first compound 0.0949 µM): 2.47% | viability, T/C (second compound 1 µM, first compound 0.3 µM): 1.44%

NC1CCC(NC2CC2c2ccccc2)CC1 (stereo unspecified) + CNC(C)C(=O)NC1CN(S(=O)(=O)c2cccc(S(=O)(=O)N3CCC4CCC(C(=O)NC(c5ccccc5)c5ccccc5)N4C(=O)C(NC(=O)C(C)NC)C3)c2)CCC2CCC(C(=O)NC(c3ccccc3)c3ccccc3)N2C1=O
IC50 (second compound 0.00316 µM): > 100 nM | IC50 (second compound 0.01 µM): > 100 nM | IC50 (second compound 0.0316 µM): > 100 nM | IC50 (second compound 0.1 µM): > 100 nM | IC50 (second compound 0.316 µM): < 0.316 nM | IC50 (second compound 1 µM): < 0.316 nM | viability, T/C (second compound 0.00316 µM, first compound 0.000316 µM): 83.2% | viability, T/C (second compound 0.00316 µM, first compound 0.001 µM): 88.8% | viability, T/C [1]: 84.5% | viability, T/C [2]: 96% | viability, T/C [3]: 80.5% | viability, T/C [4]: 74.5% | viability, T/C (second compound 0.01 µM, first compound 0.000316 µM): 93% | viability, T/C (second compound 0.01 µM, first compound 0.001 µM): 80.6% | viability, T/C [5]: 86.9% | viability, T/C [6]: 93.7% | viability, T/C [7]: 82.3% | viability, T/C [8]: 76.7% | viability, T/C (second compound 0.0316 µM, first compound 0.000316 µM): 102% | viability, T/C (second compound 0.0316 µM, first compound 0.001 µM): 73.7% | viability, T/C [9]: 77% | viability, T/C [10]: 70.1% | viability, T/C [11]: 89.5% | viability, T/C [12]: 57.4% | viability, T/C (second compound 0.1 µM, first compound 0.000316 µM): 67.5% | viability, T/C (second compound 0.1 µM, first compound 0.001 µM): 52% | viability, T/C [13]: 69.1% | viability, T/C [14]: 49% | viability, T/C [15]: 69.3% | viability, T/C [16]: 64.7% | viability, T/C (second compound 0.316 µM, first compound 0.000316 µM): 43.2% | viability, T/C (second compound 0.316 µM, first compound 0.001 µM): 56.5% | viability, T/C [17]: 48% | viability, T/C [18]: 54% | viability, T/C [19]: 61.9% | viability, T/C [20]: 44% | viability, T/C (second compound 1 µM, first compound 0.000316 µM): 37.5% | viability, T/C (second compound 1 µM, first compound 0.001 µM): 39.7% | viability, T/C [21]: 34.5% | viability, T/C [22]: 36.8% | viability, T/C [23]: 46.1% | viability, T/C [24]: 36.8%
